From paper PMC7206119, “RIP1 inhibition blocks inflammatory diseases but not tumor growth or metastases” (Cell Death and Differentiation, 2019)

Key:
Experiment in all cases: biochemical
Parameters in all cases: DiscoverX kinase panel, active-site competition binding (KINOMEscan type), percent of control at one concentration
Settings in all cases: competition binding, percent of control
[1] = target: T1, RPS6KA4(Kin.Dom.1-N-terminal) (Homo sapiens, UniProt O75676)
T1 construct: Kin.Dom.1-N-terminal
T1 sequence (O75676 whole entry): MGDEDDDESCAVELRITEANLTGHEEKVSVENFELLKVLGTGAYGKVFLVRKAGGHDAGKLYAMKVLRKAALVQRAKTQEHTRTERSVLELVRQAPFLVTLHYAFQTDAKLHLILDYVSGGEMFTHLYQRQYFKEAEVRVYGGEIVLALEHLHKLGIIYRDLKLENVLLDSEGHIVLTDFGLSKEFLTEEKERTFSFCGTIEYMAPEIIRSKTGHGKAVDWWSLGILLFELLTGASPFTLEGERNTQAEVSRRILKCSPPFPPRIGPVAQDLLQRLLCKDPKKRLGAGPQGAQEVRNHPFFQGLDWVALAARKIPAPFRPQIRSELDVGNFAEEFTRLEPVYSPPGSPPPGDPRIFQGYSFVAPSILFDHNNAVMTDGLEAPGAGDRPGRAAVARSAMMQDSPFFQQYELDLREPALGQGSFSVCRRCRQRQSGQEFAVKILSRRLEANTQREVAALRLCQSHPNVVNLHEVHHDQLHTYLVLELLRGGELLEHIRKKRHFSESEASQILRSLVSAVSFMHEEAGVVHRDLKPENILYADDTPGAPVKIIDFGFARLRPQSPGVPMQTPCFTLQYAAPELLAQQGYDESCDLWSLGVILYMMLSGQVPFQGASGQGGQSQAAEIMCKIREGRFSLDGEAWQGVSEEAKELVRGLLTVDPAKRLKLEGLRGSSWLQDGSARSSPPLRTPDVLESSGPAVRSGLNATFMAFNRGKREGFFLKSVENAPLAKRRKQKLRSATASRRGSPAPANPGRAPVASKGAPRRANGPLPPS

GRK3 = GRK3 (Homo sapiens, UniProt P35626)
Sequence of GRK3 (P35626 whole entry): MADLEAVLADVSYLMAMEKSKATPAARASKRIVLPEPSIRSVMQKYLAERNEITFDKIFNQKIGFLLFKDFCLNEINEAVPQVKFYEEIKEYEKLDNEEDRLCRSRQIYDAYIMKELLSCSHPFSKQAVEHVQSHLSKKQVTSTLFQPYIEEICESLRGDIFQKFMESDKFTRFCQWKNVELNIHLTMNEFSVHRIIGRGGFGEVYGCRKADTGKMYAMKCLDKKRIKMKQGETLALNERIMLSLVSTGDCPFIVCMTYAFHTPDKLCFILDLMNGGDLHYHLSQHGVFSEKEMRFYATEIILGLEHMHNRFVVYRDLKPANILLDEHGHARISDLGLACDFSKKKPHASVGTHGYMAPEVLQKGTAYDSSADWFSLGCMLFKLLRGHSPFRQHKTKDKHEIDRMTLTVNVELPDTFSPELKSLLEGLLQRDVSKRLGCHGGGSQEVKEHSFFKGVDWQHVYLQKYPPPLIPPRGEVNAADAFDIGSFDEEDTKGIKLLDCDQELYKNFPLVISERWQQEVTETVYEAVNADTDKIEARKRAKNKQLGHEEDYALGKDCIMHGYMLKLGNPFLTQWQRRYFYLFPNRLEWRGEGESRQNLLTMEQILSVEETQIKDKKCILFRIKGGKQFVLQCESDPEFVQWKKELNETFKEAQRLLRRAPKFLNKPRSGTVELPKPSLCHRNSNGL

SIK2 = SIK2 (Homo sapiens, UniProt Q9H0K1)
MARK1 = MARK1 (Homo sapiens, UniProt Q9P0L2)
Sequence of MARK1 (Q9P0L2 whole entry): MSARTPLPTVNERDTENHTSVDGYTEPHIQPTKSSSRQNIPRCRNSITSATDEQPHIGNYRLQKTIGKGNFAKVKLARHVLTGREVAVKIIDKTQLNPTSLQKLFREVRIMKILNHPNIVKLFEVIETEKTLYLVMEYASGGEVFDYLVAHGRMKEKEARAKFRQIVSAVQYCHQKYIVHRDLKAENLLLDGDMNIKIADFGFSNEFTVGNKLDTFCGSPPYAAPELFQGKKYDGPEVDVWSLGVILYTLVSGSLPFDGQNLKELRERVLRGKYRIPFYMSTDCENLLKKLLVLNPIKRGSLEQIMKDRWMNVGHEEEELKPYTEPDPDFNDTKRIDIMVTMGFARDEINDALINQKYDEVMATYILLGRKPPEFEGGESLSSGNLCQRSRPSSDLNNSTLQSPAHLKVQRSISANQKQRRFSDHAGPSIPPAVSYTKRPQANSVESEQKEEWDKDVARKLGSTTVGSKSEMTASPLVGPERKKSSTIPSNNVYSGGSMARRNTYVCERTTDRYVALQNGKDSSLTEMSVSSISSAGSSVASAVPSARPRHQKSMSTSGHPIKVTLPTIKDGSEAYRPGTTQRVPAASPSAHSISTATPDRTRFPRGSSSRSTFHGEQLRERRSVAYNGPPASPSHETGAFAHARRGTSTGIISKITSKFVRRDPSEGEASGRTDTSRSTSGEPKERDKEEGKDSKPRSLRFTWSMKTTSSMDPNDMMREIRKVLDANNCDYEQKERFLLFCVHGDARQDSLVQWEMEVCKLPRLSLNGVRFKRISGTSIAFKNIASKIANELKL

[2] = target: T2, RPS6KA5(Kin.Dom.1-N-terminal) (Homo sapiens, UniProt O75582)
T2 construct: Kin.Dom.1-N-terminal

CSK = CSK (Homo sapiens, UniProt P41240)
Sequence of CSK (P41240 whole entry): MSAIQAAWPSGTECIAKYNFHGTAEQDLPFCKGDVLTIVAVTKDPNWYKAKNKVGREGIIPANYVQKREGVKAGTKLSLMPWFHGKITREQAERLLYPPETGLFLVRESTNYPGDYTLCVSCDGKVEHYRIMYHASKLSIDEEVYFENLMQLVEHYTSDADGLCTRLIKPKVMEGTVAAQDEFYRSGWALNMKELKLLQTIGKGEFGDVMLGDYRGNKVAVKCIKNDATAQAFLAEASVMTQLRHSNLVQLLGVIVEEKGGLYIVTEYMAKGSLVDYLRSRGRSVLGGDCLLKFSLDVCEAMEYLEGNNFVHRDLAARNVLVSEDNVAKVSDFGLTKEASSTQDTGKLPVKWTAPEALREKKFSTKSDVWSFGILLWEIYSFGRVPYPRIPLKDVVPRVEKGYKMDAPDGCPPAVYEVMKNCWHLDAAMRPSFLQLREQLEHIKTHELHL

HIPK4 = HIPK4 (Homo sapiens, UniProt Q8NE63)
Sequence of HIPK4 (Q8NE63 whole entry): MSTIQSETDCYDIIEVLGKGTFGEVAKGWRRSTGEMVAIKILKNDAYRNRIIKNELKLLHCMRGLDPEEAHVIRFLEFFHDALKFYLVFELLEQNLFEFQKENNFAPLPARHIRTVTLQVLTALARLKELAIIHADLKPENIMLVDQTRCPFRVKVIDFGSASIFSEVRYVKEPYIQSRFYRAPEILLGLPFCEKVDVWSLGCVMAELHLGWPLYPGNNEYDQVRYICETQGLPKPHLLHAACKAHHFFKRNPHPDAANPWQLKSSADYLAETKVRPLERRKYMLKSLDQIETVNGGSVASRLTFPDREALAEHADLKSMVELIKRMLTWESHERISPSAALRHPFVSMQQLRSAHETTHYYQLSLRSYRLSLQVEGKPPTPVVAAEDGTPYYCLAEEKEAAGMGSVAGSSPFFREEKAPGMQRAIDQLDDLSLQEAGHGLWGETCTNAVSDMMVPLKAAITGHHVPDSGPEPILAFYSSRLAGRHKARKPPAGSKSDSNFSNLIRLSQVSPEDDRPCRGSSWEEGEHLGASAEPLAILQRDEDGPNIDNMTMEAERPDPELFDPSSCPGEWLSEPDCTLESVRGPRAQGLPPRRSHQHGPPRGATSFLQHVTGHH

[3] = target: T3, ABL1(F317L)-nonphosphorylated (Homo sapiens, UniProt P00519, F317L)
T3 construct: nonphosphorylated

PRKG2 = PRKG2 (Homo sapiens, UniProt Q13237)
Sequence of PRKG2 (Q13237 whole entry): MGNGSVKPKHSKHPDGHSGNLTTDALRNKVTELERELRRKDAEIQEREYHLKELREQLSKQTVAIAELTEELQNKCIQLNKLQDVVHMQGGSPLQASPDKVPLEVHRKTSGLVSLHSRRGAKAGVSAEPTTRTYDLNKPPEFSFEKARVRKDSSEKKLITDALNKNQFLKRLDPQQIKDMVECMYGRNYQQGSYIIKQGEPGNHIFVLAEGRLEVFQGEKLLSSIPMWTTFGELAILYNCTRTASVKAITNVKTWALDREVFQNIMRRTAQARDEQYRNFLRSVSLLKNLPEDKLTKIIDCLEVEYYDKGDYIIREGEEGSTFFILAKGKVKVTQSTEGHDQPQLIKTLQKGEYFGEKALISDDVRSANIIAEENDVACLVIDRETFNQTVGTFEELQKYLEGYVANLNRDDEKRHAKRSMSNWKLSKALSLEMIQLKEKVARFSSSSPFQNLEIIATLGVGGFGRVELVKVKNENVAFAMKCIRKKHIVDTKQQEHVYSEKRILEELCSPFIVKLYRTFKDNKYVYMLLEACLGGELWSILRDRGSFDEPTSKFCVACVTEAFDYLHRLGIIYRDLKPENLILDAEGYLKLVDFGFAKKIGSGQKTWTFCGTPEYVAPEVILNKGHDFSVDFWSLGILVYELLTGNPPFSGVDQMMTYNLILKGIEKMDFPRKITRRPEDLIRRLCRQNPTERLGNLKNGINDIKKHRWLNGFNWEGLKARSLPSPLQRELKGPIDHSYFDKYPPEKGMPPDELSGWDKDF

CSNK1G1 = CSNK1G1 (Homo sapiens, UniProt Q9HCP0)
PCTK3 = target: T4, PCTK3 (Homo sapiens, UniProt Q07002)
T4 construct: gene CDK18

IKK-epsilon = target: T5, IKK-epsilon (Homo sapiens, UniProt Q14164)
T5 construct: gene IKBKE
T5 sequence (Q14164 whole entry): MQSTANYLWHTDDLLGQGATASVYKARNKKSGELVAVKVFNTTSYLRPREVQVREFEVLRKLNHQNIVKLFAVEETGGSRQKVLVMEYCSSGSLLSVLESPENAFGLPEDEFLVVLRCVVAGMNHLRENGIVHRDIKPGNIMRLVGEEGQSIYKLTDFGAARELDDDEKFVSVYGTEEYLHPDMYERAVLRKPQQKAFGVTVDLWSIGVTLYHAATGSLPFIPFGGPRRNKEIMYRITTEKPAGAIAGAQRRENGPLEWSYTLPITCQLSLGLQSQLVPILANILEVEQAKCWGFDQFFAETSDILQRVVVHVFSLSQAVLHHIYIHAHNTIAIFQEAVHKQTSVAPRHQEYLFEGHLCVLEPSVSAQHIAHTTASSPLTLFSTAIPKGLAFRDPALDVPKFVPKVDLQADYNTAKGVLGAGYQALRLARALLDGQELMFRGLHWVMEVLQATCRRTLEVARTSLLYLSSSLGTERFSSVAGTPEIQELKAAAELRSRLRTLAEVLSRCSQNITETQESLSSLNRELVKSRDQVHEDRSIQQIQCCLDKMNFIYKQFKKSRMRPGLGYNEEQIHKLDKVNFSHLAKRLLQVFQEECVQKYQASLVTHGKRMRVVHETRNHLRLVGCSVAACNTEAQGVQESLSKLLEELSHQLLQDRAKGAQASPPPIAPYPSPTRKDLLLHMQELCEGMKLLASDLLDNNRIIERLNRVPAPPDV

DRAK1 = target: T6, DRAK1 (Homo sapiens, UniProt Q9UEE5)
T6 construct: gene STK17A

MAPKAPK5 = MAPKAPK5 (Homo sapiens, UniProt Q8IW41)
CDK5 = CDK5 (Homo sapiens, UniProt Q00535)
KIT = KIT (Homo sapiens, UniProt P10721)
CAMKK1 = CAMKK1 (Homo sapiens, UniProt Q8N5S9)
PIM1 = PIM1 (Homo sapiens, UniProt P11309)
FAK = target: T7, FAK (Homo sapiens, UniProt Q05397)
T7 construct: gene PTK2

PAK7 = target: T8, PAK7 (Homo sapiens, UniProt Q9P286)
T8 construct: gene PAK5

CSF1R-autoinhibited = CSF1R-autoinhibited (Homo sapiens, UniProt P07333)

`COc1cc2c(cn1)N(C)C(=O)[C@@H](NC(=O)c1nc3n(n1)[C@H](c1ccccc1)CC3)CC2` [GNE684, (S)-N-((S)-7-methoxy-1-methyl-2-oxo-2,3,4,5-tetrahydro-1H-pyrido[3,4-b]azepin-3-yl)-5-phenyl-6,7-dihydro-5H-pyrrolo[1,2-b][1,2,4]triazole-2-carboxamide] was tested, and the remaining binding at 10 µM [1] was 75%, the remaining binding at 10 µM (GRK3) was 100% and the remaining binding at 10 µM (SIK2) was 98%. It also gave a remaining binding at 10 µM (MARK1) of 69%, a remaining binding at 10 µM [2] of 84% and a remaining binding at 10 µM (CSK) of 100%. The remaining binding at 10 µM (HIPK4) was 100%, the remaining binding at 10 µM [3] was 79% and the remaining binding at 10 µM (PRKG2) was 94%. It also gave a remaining binding at 10 µM (CSNK1G1) of 91%, a remaining binding at 10 µM (PCTK3) of 94% and a remaining binding at 10 µM (IKK-epsilon) of 88%. It also gave a remaining binding at 10 µM (DRAK1) of 92%, a remaining binding at 10 µM (MAPKAPK5) of 100% and a remaining binding at 10 µM (CDK5) of 93%. The remaining binding at 10 µM (KIT) was 95%, the remaining binding at 10 µM (CAMKK1) was 99% and the remaining binding at 10 µM (PIM1) was 100%. The remaining binding at 10 µM (FAK) was 85%, the remaining binding at 10 µM (PAK7) was 90% and the remaining binding at 10 µM (CSF1R-autoinhibited) was 94%.
